Holding throughout (test): normalised viability (% of control), CellTiter-Blue; higher = more viable cells (about 100 = DMSO control)
Common to all, as to conditions: incubation time: 72 h
A general note: Alamar Blue is a resazurin reagent that responds to reducing activity.

Experiment [1] concerns CAL-148. The method, then: (§1)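 DSRT, CellTiter-Blue viability, 72 h incubation. Signal is normalised to DMSO and benzethonium chloride controls. Value is the normalised response at dose 9.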
Experiment [2] concerns CAL-51. The method, then:
as §1

In experiment [3] the test system is CAL-85-1. As to the method: as §1
Experiment [4] relates to DU-4475. As to the method:
as §1

Experiment [5] deals with HDQ-P1. The method, then:
as §1

In experiment [6] the test system is MDA-MB-453. As to the method:
as §1

The subject of experiment [7] is CAL-148. The method, then:
(§2)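 DSRT, CellTiter-Blue viability, 72 h incubation. Signal is normalised to DMSO and benzethonium chloride controls. Value is the normalised response at dose 8.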
This is another data set of the same source.

Experiment [8] concerns CAL-51. As to the method:
as §2
This is another data set of the same source.

Experiment [9] concerns CAL-85-1. As to the method: as §2
The source holds these as a separate data set.

The subject of experiment [10] is DU-4475. As to the method: as §2
The source holds these as a separate data set.

The test system of experiment [11] is HDQ-P1. The method, then:
as §2
The source holds these as a separate data set.

For experiment [12], the system named is MDA-MB-453. The method, then: as §2
This is another data set of the same source.

Each structure is given as a SMILES string. Values joined by “and” are separate entries in the source; they are usually repeats but may differ in a detail not shown here. Identical values can stand only once.

Take `Nc1cc(C(F)(F)F)c(-c2cc(N3CCOCC3)nc(N3CCOCC3)n2)cn1` [BKM-120] (10000 nM): the normalised viability in the experiment with CAL-148 [1] was determined as 6.46%; with CAL-51 [2], 4.15%; with CAL-85-1 [3] it was 20.1%; with DU-4475 [4], 12.7%; with HDQ-P1 [5], 12.4%; in the experiment on MDA-MB-453 [6] it was 6.1%.
With `COC(=O)c1ccc2c(c1)NC(=O)/C2=C(\Nc1ccc(N(C)C(=O)CN2CCN(C)CC2)cc1)c1ccccc1` [BIBF 1120] (3000 nM), the normalised viability in the experiment with CAL-148 [7] turned out to be 94.8%; with CAL-51 [8] it was 62.7%; in the experiment with CAL-85-1 [9], 91.1%; in the experiment with DU-4475 [10], 97.1%; with HDQ-P1 [11] it was 91%; in the experiment with MDA-MB-453 [12] it was 59.8%.
`COC(=O)c1ccc2c(c1)NC(=O)/C2=C(\Nc1ccc(N(C)C(=O)CN2CCN(C)CC2)cc1)c1ccccc1` [BIBF 1120] (10000 nM): the normalised viability amounted to 70.5% in the experiment on CAL-148 [1]; 42.3% in the experiment on CAL-51 [2]; 53.9% in the experiment with CAL-85-1 [3]; 24.8% in the experiment on DU-4475 [4]; 56.6% in the experiment on HDQ-P1 [5]; 2.37% with MDA-MB-453 [6].
With `COCC1(CO)C(=O)C2CCN1CC2` (centres undefined) [Prima-1 Met] (3000 nM), the normalised viability came to 89.1% in the experiment on CAL-148 [7]; 97.2% with CAL-51 [8]; 91.4% in the experiment on CAL-85-1 [9]; 101% with DU-4475 [10]; 77.5% in the experiment on HDQ-P1 [11]; 100% in the experiment with MDA-MB-453 [12].
Regarding `CNC(=O)c1cc(Oc2ccc(NC(=O)Nc3ccc(Cl)c(C(F)(F)F)c3)c(F)c2)ccn1` [Regorafenib] (3000 nM), the normalised viability stood at 95.8% in the experiment on CAL-148 [7]; 69.5% with CAL-51 [8]; 86.6% with CAL-85-1 [9]; 67.6% in the experiment with DU-4475 [10]; 88.4% in the experiment with HDQ-P1 [11]; 53.1% in the experiment with MDA-MB-453 [12].
Consider `O=C(/C=C/c1cccc(S(=O)(=O)Nc2ccccc2)c1)NO` [Belinostat] (3000 nM), for which the normalised viability in the experiment on CAL-148 [7] was 3.16%; in the experiment on CAL-51 [8], 9.77%; in the experiment with CAL-85-1 [9], 16.4%; with DU-4475 [10], 1.84%; in the experiment on HDQ-P1 [11], 39.1%; with MDA-MB-453 [12] it was 2.18%.
Take `S=P(N1CC1)(N1CC1)N1CC1` [Thio-TEPA] (100000 nM): the normalised viability turned out to be 111% in the experiment with CAL-148 [1]; 99.7% in the experiment on CAL-51 [2]; 101% in the experiment on CAL-85-1 [3]; 102% in the experiment with DU-4475 [4]; 91.3% with HDQ-P1 [5]; 104% with MDA-MB-453 [6].
With `COc1cc2/c(=N/c3ccc(Br)cc3F)nc[nH]c2cc1OCC1CCN(C)CC1` [Vandetanib] (10000 nM), the normalised viability with CAL-148 [1] was 59.6%; in the experiment with CAL-51 [2], 15.3%; in the experiment on CAL-85-1 [3], 17.3%; with DU-4475 [4], 111%; in the experiment on HDQ-P1 [5] it was 8.94%; with MDA-MB-453 [6], 17.4%.
Take `CO[C@H]1C[C@@H]2CC[C@@H](C)[C@@](O)(O2)C(=O)C(=O)N2CCCC[C@H]2C(=O)O[C@H]([C@H](C)C[C@@H]2CC[C@@H](OP(C)(C)=O)[C@H](OC)C2)CC(=O)[C@H](C)/C=C(\C)[C@@H](O)[C@@H](OC)C(=O)[C@H](C)C[C@H](C)/C=C/C=C/C=C/1C` [Ridaforolimus] (300 nM): the normalised viability with CAL-148 [7] was determined as 34.2%; in the experiment with CAL-51 [8], 35.5%; in the experiment on CAL-85-1 [9], 55.4%; in the experiment with DU-4475 [10] it was 51.7%; with HDQ-P1 [11] it was 65.8%; in the experiment on MDA-MB-453 [12], 28.5%.
Turning to `Cc1cc(Nc2cc(CN3CCOCC3)c3nc(C)c(Cc4ccc(Cl)cc4F)n3n2)n[nH]1` (3000 nM), the normalised viability came to 76.1% in the experiment with CAL-148 [7]; 38.2% in the experiment with CAL-51 [8]; 59.4% in the experiment on CAL-85-1 [9]; 52.4% in the experiment with DU-4475 [10]; 35.5% in the experiment on HDQ-P1 [11]; 60.7% in the experiment on MDA-MB-453 [12].
Take `CN(C)c1nc(N(C)C)nc(N(C)C)n1` [Altretamine] (3000 nM): the normalised viability with CAL-148 [7] amounted to 97%; in the experiment on CAL-51 [8], 114%; in the experiment with CAL-85-1 [9], 97.8%; in the experiment with DU-4475 [10] it was 115%; in the experiment on HDQ-P1 [11], 99.9%; in the experiment on MDA-MB-453 [12], 108%.
Turning to `Cc1cc(Nc2cc(CN3CCOCC3)c3nc(C)c(Cc4ccc(Cl)cc4F)n3n2)n[nH]1` (10000 nM), the normalised viability in the experiment with CAL-148 [1] worked out at 62.4%; in the experiment with CAL-51 [2], 12.5%; in the experiment on CAL-85-1 [3] it was 33.1%; in the experiment on DU-4475 [4], 36.9%; in the experiment on HDQ-P1 [5], 15%; in the experiment with MDA-MB-453 [6], 36%.
Consider `COc1cc(OC2CCN(C)CC2)ccc1Nc1ncc2c(n1)n(C1CCCC1)c(=O)n2C` [AZ 3146] (3000 nM), for which the normalised viability was 43.5% in the experiment with CAL-148 [7]; 28% in the experiment with CAL-51 [8]; 84.5% in the experiment on CAL-85-1 [9]; 89% in the experiment with DU-4475 [10]; 72.4% with HDQ-P1 [11]; 69.6% in the experiment with MDA-MB-453 [12].
For the compound `CC(C)C[C@@H](C(=O)N[C@H](C(=O)OC1CCCC1)c1ccccc1)[C@H](O)C(=O)NO` [Tosedostat] (3000 nM), the normalised viability with CAL-148 [7] is 56.5%; in the experiment on CAL-51 [8] it was 75.3%; in the experiment with CAL-85-1 [9], 61.1%; with DU-4475 [10], 48.1%; in the experiment on HDQ-P1 [11] it was 72.9%; in the experiment on MDA-MB-453 [12], 49.8%.
With `NC(=O)c1ccc(I)c([N+](=O)[O-])c1` [Iniparib] (3000 nM), the normalised viability in the experiment with CAL-148 [7] is 97%; in the experiment on CAL-51 [8], 93.8%; in the experiment on CAL-85-1 [9], 84.5%; in the experiment with DU-4475 [10], 88.1%; in the experiment with HDQ-P1 [11], 93.9%; in the experiment on MDA-MB-453 [12], 85.1%.
With `O=C(Nc1ccncc1)C(=O)c1cn(Cc2ccc(Cl)cc2)c2ccccc12` [Indibulin] (3000 nM), the normalised viability with CAL-148 [7] was found to be 83.8%; in the experiment with CAL-51 [8], 25.5%; in the experiment on CAL-85-1 [9] it was 39.7%; in the experiment on DU-4475 [10] it was 22.6%; with HDQ-P1 [11], 54.7%; in the experiment with MDA-MB-453 [12], 39.5%.
Regarding `COc1cc2/c(=N/c3ccc(Br)cc3F)nc[nH]c2cc1OCC1CCN(C)CC1` [Vandetanib] (3000 nM), the normalised viability is 77% with CAL-148 [7]; 49.2% in the experiment with CAL-51 [8]; 50.5% in the experiment with CAL-85-1 [9]; 125% in the experiment with DU-4475 [10]; 27.5% in the experiment with HDQ-P1 [11]; 72.3% in the experiment on MDA-MB-453 [12].
As to `Cc1[nH]c2ccccc2c1CCNCc1ccc(/C=C/C(=O)NO)cc1` [Panobinostat] (300 nM), the normalised viability stood at 1.12% in the experiment with CAL-148 [7]; 5.46% in the experiment on CAL-51 [8]; 7.2% with CAL-85-1 [9]; 6.86% with DU-4475 [10]; 23.1% with HDQ-P1 [11]; 1.93% in the experiment on MDA-MB-453 [12].
With `N#Cc1ccc(COC[C@H]2O[C@@H](n3c(NCc4ccc(Cl)c(Cl)c4)nc4c(N)ncnc43)[C@H](O)[C@@H]2O)cc1` (3000 nM), the normalised viability came to 87.7% in the experiment on CAL-148 [7]; 99.3% with CAL-51 [8]; 93% in the experiment on CAL-85-1 [9]; 82.7% in the experiment on DU-4475 [10]; 89.5% with HDQ-P1 [11]; 96% with MDA-MB-453 [12].
`Oc1ccc2c(c1)CC[C@H](c1ccccc1)[C@@H]2c1ccc(OCCN2CCCC2)cc1` [Lasofoxifene] (300 nM): the normalised viability with CAL-148 [7] stood at 98.2%; with CAL-51 [8], 109%; in the experiment on CAL-85-1 [9] it was 96.8%; in the experiment with DU-4475 [10] it was 96.4%; in the experiment on HDQ-P1 [11] it was 102%; in the experiment with MDA-MB-453 [12], 104%.
With `CO[C@H]1C[C@@H]2CC[C@@H](C)[C@@](O)(O2)C(=O)C(=O)N2CCCC[C@H]2C(=O)O[C@H]([C@H](C)C[C@@H]2CC[C@@H](OP(C)(C)=O)[C@H](OC)C2)CC(=O)[C@H](C)/C=C(\C)[C@@H](O)[C@@H](OC)C(=O)[C@H](C)C[C@H](C)/C=C/C=C/C=C/1C` [Ridaforolimus] (1000 nM), the normalised viability was determined as 35.4% with CAL-148 [1]; 31.3% in the experiment with CAL-51 [2]; 50.6% with CAL-85-1 [3]; 6.1% with DU-4475 [4]; 81.7% in the experiment on HDQ-P1 [5]; 21.4% in the experiment with MDA-MB-453 [6].
In the case of `COc1cc2ncnc(Nc3ccc(F)c(Cl)c3)c2cc1OCCCN1CCOCC1` [Gefitinib] (3000 nM), the normalised viability is 76% and 67.1% in the experiment with CAL-148 [7]; 96.4% and 96.1% in the experiment on CAL-51 [8]; 55.9% and 54% with CAL-85-1 [9]; 101% in the experiment with DU-4475 [10]; 77% and 86.2% in the experiment with HDQ-P1 [11]; 79.3% and 69.5% in the experiment on MDA-MB-453 [12].
On to `C=C1C[C@@H]2[C@H](CC[C@]3(C)C(=O)CC[C@@H]23)[C@@]2(C)C=CC(=O)C=C12` [Exemestane] (3000 nM), for which the normalised viability in the experiment with CAL-148 [7] was 104%; in the experiment with CAL-51 [8], 110%; in the experiment on CAL-85-1 [9], 90.7%; in the experiment on DU-4475 [10], 106%; in the experiment with HDQ-P1 [11] it was 92.4%; with MDA-MB-453 [12], 79%.
Turning to `Nc1cc(C(F)(F)F)c(-c2cc(N3CCOCC3)nc(N3CCOCC3)n2)cn1` [BKM-120] (3000 nM), the normalised viability in the experiment with CAL-148 [7] was 18.8%; with CAL-51 [8], 10.4%; with CAL-85-1 [9] it was 27.3%; in the experiment on DU-4475 [10], 38%; in the experiment on HDQ-P1 [11] it was 27.7%; in the experiment on MDA-MB-453 [12] it was 11.9%.

The values are drawn from the supplement of paper PMC4862054.
